The record followed here is PubChem BioAssay (NCI).

Common to all, as to test: inhibition of tumour cell growth, NCI panel, 48 h
Test [1] relates to LXFL 529 NSCLC.
The test system of test [2] is KM20L2 colon.
For test [3], the system named is SNB-19 CNS.
The test system of test [4] is M14 melanoma.
For test [5], the system named is HOP-18 NSCLC.
Test [6] has as its system M19-MEL melanoma.
Test [7] has as its system DLD-1 colon.
Test [8] concerns ACHN renal.
Test [9] relates to COLO 205 colon.
Test [10] deals with HCT-116 colon.
Test [11] has as its system SN12C renal.
The test system of test [12] is SF-295 CNS.
The subject of test [13] is MOLT-4 leukemia.
Test [14] concerns UO-31 renal.
Test [15] deals with DMS 114 small cell lung.
The test system of test [16] is BT-549 breast.

The structures appear in SMILES notation.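 Cultured in 96-well plates, cells were exposed to test compound for 48 hours across five concentrations. Abbreviation: GI50, concentration required for 50% inhibition of growth. The concentration for full growth arrest is given as TGI.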 A value given as a limit tells only on which side of the number the result lay.

For the compound `C/C(CN1C(=O)c2ccccc2C1=O)=N\NS(=O)(=O)c1ccc(Cl)cc1`, the TGI in test [1], in test [2], in test [3], in test [4], in test [5] and in [6] was greater than 100 µM throughout. Besides, the TGI in [7], in test [8], in test [9], in [10], in test [11] and in [12] was greater than 100 µM in each case. The TGI in [13] and in [14] was greater than 100 µM each time.

Regarding `COCCOCOC(CCCCO)c1cc(C)c(O[Si](C)(C)C(C)(C)C)c(C)c1` (stereo not drawn), the TGI came to 22.6 µM in test [1]; 17.9 µM in test [2]; 10.2 µM in test [15]; 19.2 µM in test [3]; 23.1 µM in [4]; 30.8 µM in [5]. The TGI in test [6] was 18 µM; in test [8], 21.6 µM; in test [9], 22.3 µM; in [11], 8.73 µM; in test [12], 16.3 µM; in [13] it was 13.2 µM. The same compound yielded a TGI in [14] of 17.2 µM.

With `CC(=O)OCCOCNC(=S)N/N=C/c1ccc([N+](=O)[O-])o1`, the TGI was greater than 100 µM in [1]; greater than 100 µM in [2]; 43.1 µM in test [15]; greater than 100 µM in test [3]; greater than 100 µM in test [4]; greater than 100 µM in test [5]. For the same compound, the TGI was 31 µM in test [6]; greater than 100 µM in test [7]; greater than 100 µM in test [8]; 42.9 µM in test [9]; greater than 100 µM in test [10]; greater than 100 µM in [11]. In addition, the TGI in [12] and in test [14] was greater than 100 µM each time.

For the compound `COc1cc(-c2cccs2)sc1-c1cccs1`, the TGI in test [1] is greater than 100 µM; in test [2] it was 85.1 µM; in test [15] it was 94.3 µM; in [3] it was greater than 100 µM; in test [4] it was greater than 100 µM; in test [5] it was 17.2 µM. Besides, the TGI in test [6] is greater than 100 µM; in test [7], greater than 100 µM; in [8], greater than 100 µM; in test [9] it was 27.3 µM; in test [10], greater than 100 µM; in [11] it was greater than 100 µM. Also, the TGI in test [12], in test [13] and in [14] was greater than 100 µM in each case.

Turning to `CCOC(=O)/C(=C/c1ccc(OC)cc1)N(CC)CC`, the TGI in [1], in test [2], in [15], in test [3], in [4] and in test [6] was greater than 100 µM in each case. Also, the TGI in [8], in [9], in test [10], in [11], in [12] and in test [13] was greater than 100 µM each time. Besides, the TGI in [14] was greater than 100 µM.

For `CN(C)CC1CCC/C1=N/OC(=O)c1ccccc1` (stereo not drawn), the TGI in test [1], in test [2], in [15], in test [4], in [5] and in test [6] was greater than 100 µM throughout. Besides, the TGI in [7], in [8], in test [9], in test [10], in test [11] and in test [12] was greater than 100 µM in each case. The TGI in test [13] and in test [14] was greater than 100 µM in each case.

On to `O=C(Nc1nc(=S)[nH][nH]1)C(=O)C(C(=O)c1ccc2ccccc2c1)C1OC(=O)c2ccccc21` (stereo not drawn), for which the TGI in [1] was 52.7 µM; in test [2], greater than 100 µM; in test [15], 52.7 µM; in test [3] it was 33.3 µM; in test [4], 40.9 µM; in [5] it was 40.2 µM. For the same compound, the TGI was 30.6 µM in [6]; 44.6 µM in test [7]; greater than 100 µM in test [8]; 34.5 µM in test [9]; 27.6 µM in test [10]; 47.2 µM in [11]. Besides, the TGI is 21.1 µM in [13] and 30.5 µM in [14].

Consider `COc1cc2c(cc1O)[C@H](C)C(c1ccc(OC)c(OC)c1)O2` (stereo partly drawn), for which the TGI in test [1] turned out to be 21.5 µM; in test [2], 38.2 µM; in test [15] it was 13.8 µM; in [3], 65.3 µM; in [4], 15.9 µM; in test [5], 20 µM. For the same compound, the TGI in test [6] was 12.2 µM; in test [7], 21.3 µM; in test [8] it was 22.4 µM; in test [9], 49.2 µM; in [10], 15.1 µM; in [12] it was greater than 100 µM. Moreover, the TGI in [13] was 23.9 µM; in test [14], 64 µM.

Take `S=P1(Oc2ccccc2)NNP2(=NP(N3CC3)(N3CC3)=NP(N3CC3)(N3CC3)=N2)NN1` (stereo not drawn): the TGI in [1], in test [15], in test [3], in [5], in test [6] and in test [7] was greater than 100 µM in each case. The TGI in [8], in [9], in test [10], in test [11], in test [13] and in test [14] was greater than 100 µM each time.

In the case of `CNC(=O)NCCCC(NC(C)=O)C(=O)NCc1ccccc1` (stereo not drawn), the TGI in test [1], in [2], in test [15], in test [3], in [4] and in test [6] was greater than 100 µM in each case. In addition, the TGI in [7], in [8], in test [9], in [10], in test [11] and in [12] was greater than 100 µM throughout. In addition, the TGI in test [13] and in test [14] was greater than 100 µM each time.

As for `COc1cc(C2C(Cl)C(=O)N2n2cnc3ccccc3c2=O)ccc1O` (stereo not drawn), the TGI in test [1], in test [2], in test [15], in test [3], in test [4] and in test [5] was greater than 100 µM throughout. Besides, the TGI in test [6], in test [7], in test [8], in test [9], in test [10] and in [11] was greater than 100 µM throughout. Further, the TGI in [12], in [13] and in test [14] was greater than 100 µM each time.

As to `N#Cc1cccc(-n2[nH]c(=O)ccc2=O)c1`, the TGI in test [1], in [2], in [15], in test [3], in [4] and in test [6] was greater than 100 µM in each case. In addition, the TGI in [7], in [8], in test [9], in [10], in test [12] and in test [13] was greater than 100 µM in each case. Further, in test [14], the TGI is greater than 100 µM.

As to `CCOC(=O)CCC(NC(=O)C(N)Cc1ccc(N(CCCl)CCCl)cc1)C(=O)OCC` (stereo not drawn), the TGI in test [3] is 15.5 µM; in test [4] it was 1.39 µM; in test [8] it was 0.692 µM; in test [9], 1.85 µM; in [10] it was 3.54 µM; in test [11] it was 5.72 µM. In addition, the TGI was 11.7 µM in test [12], 1.99 µM in [13], 12.4 µM in test [16] and 2.92 µM in test [14].

For the compound `CCOC(=O)C(=[N+]=[N-])C(=O)CN1C(=O)c2ccccc2C1=O`, the TGI in test [3], in test [4], in test [8], in [9], in test [10] and in [11] was greater than 100 µM throughout. For the same compound, the TGI in [12], in test [13], in test [16] and in test [14] was greater than 100 µM throughout.

On to `O=C(O)Cc1ccc([N+](=O)[O-])cc1[N+](=O)[O-]`, for which the TGI in [3], in test [4], in test [8], in test [9], in test [10] and in [11] was greater than 100 µM each time. The TGI in test [12], in [13], in [16] and in test [14] was greater than 100 µM throughout.

As for `COc1ccc(C2Oc3cc(OC)c(OC)cc3C2CCl)cc1OC` (stereo not drawn), the TGI in test [1], in test [2], in test [15], in test [3], in test [4] and in [6] was greater than 100 µM each time. The TGI in test [7], in test [8], in test [9], in test [10], in test [11] and in test [13] was greater than 100 µM throughout. For the same compound, the TGI in [14] is greater than 100 µM.

Take `O=C1NC2(CCN(CCc3ccccc3)CC2)Oc2ccccc21`: the TGI in test [3] is greater than 100 µM; in test [4], 49.9 µM; in test [8], greater than 100 µM; in test [9], greater than 100 µM; in test [10] it was greater than 100 µM; in test [11], greater than 100 µM. Also, the TGI in [12], in test [13], in test [16] and in test [14] was greater than 100 µM in each case.

In the case of `C=C1c2nc3ccccc3n2C=C(c2ccc(OC)cc2)N1c1ccc(OC)cc1`, the TGI was 33.9 µM in test [3]; greater than 100 µM in [4]; 25 µM in test [8]; greater than 100 µM in test [9]; 74.4 µM in test [10]; 59 µM in test [11]. For the same compound, the TGI in test [12] was 32.6 µM; in test [13] it was greater than 100 µM; in test [16] it was 39.8 µM; in [14], 58.5 µM.

As to `CCNC(=O)c1ccc(C)c(N=NN(C)C)c1`, the TGI in test [1], in [2], in test [3], in test [4], in [6] and in test [7] was greater than 100 µM each time. For the same compound, the TGI in test [8], in test [10], in [11], in test [12] and in test [14] was greater than 100 µM in each case.

With `O=c1cc(-c2ccc3c(c2)OCO3)[nH]c2cc3c(cc12)OCO3`, the TGI is greater than 100 µM in [1]; 74.5 µM in test [2]; 96.1 µM in test [15]; greater than 100 µM in test [3]; greater than 100 µM in [4]; greater than 100 µM in [5]. For the same compound, the TGI is 78.2 µM in test [6]; greater than 100 µM in test [7]; greater than 100 µM in test [8]; greater than 100 µM in test [9]; greater than 100 µM in test [10]; greater than 100 µM in test [11]. Moreover, the TGI in test [12] is 87.8 µM; in [13] it was greater than 100 µM; in [14], greater than 100 µM. In addition, the GI50 was 26.6 µM in test [2], 24 µM in [15], 38 µM in test [10] and 29.6 µM in test [12].

For the compound `COCOC1/C=C/CCCCC(=O)C(C)C#CC1` (stereo not drawn), the TGI stood at 32.6 µM in [3]; 14.5 µM in test [4]; 19.9 µM in test [8]; 5.4 µM in test [9]; 3.34 µM in test [10]; 19 µM in test [11]. The TGI in [12] stood at 31.3 µM; in [13] it was 5.64 µM; in [16], 19.3 µM; in test [14], 18.9 µM.
